Legend:
[1] = test system: A 172; experiment: Anticancer activity against human A-172 cells assessed as reduction in cell viability incubated for 72 hrs by MTT assay; assay type: functional, cell-based; conditions: A 172, 72 h
[2] = test system: HEp-2; experiment: Anticancer activity against human HEp-2 cells assessed as reduction in cell viability incubated for 72 hrs by MTT assay; assay type: functional, cell-based; conditions: HEp-2, 72 h
[3] = Anticancer activity against human U87 cells assessed as reduction in cell viability incubated for 72 hrs by MTT assay; assay type: functional, cell-based, U-87MG ATCC; conditions: U-87 MG
[4] = test system: HL-60; experiment: Anticancer activity against human HL-60 cells assessed as reduction in cell viability incubated for 72 hrs by MTT assay; assay type: functional, cell-based; conditions: HL-60, 72 h
[5] = test system: CNE; experiment: Anticancer activity against human CNE cells assessed as reduction in cell viability incubated for 72 hrs by MTT assay; assay type: functional, cell-based
[6] = test system: THP-1; experiment: Anticancer activity against human THP-1 cells assessed as reduction in cell viability incubated for 72 hrs by MTT assay; assay type: functional, cell-based; conditions: THP-1, 72 h
[7] = Induction of ferroptosis in human BJeLR cells assessed as inhibition of (cystine-glutamate antiporter) system Xc- mediated cystine transport; assay type: functional, cell-based; conditions: bjelr cell
[8] = test system: MCF7; experiment: Anticancer activity against human MCF7 cells assessed as inhibition of cell viability incubated for 48 hrs by CCK-8 assay; assay type: functional, cell-based; conditions: MCF7, 48 h
[9] = test system: MDA-MB-231; experiment: Anticancer activity against human MDA-MB-231 cells assessed as inhibition of cell viability incubated for 48 hrs by CCK-8 assay; assay type: functional, cell-based; conditions: MDA-MB-231, 48 h
[10] = test system: Glioblastoma cell line; experiment: Induction of ferroptosis in human primary glioblastoma cells assessed as decrease in GPX4 protein expression incubated for 48 hrs by Western blot analysis; assay type: functional, cell-based
[11] = Induction of ferroptosis in human U-87 MG cells assessed as decrease in GPX4 protein expression incubated for 48 hrs by Western blot analysis; assay type: functional, cell-based, U-87MG ATCC
[12] = test system: HT-1080; experiment: Induction of ferroptosis in human HT-1080 cells assessed as inhibition of (cystine-glutamate antiporter) system Xc- mediated cystine transport; assay type: functional, cell-based
[13] = test system: LN-229; experiment: Induction of ferroptosis in human LN-229 cells assessed as GPX4 degradation; assay type: functional, cell-based
[14] = test system: U-118-MG; experiment: Induction of ferroptosis in human U-118-MG cells assessed as GPX4 degradation; assay type: functional, cell-based
[15] = test system: Huh-7; experiment: Antitumor activity against human Huh-7 cells assessed as inhibition of cell viability; assay type: functional, cell-based
[16] = test system: Hep 3B2; experiment: Antitumor activity against human Hep3B cells assessed as inhibition of cell viability; assay type: functional, cell-based
[17] = test system: HT-1080; experiment: Antitumor activity against human HT-1080 cells assessed as inhibition of cell viability; assay type: functional, cell-based
[18] = test system: HepG2; experiment: Antitumor activity against human HepG2 cells assessed as inhibition of cell viability; assay type: functional, cell-based
[19] = test system: Calu-1; experiment: Induction of ferroptosis in human Calu-1 cells assessed as inhibition of (cystine-glutamate antiporter) system Xc- mediated cystine transport; assay type: functional, cell-based
[20] = test system: MDA-MB-231; experiment: Antiproliferative activity against human MDA-MB-231 cells assessed as inhibition of cell viability incubated for 72 hrs by MTT assay; assay type: functional, cell-based; conditions: MDA-MB-231, 72 h
[21] = test system: NCI-N87; experiment: Anticancer activity against human NCI-N87 cells assessed as inhibition of cell viability incubated for 72 hrs by MTT assay; assay type: functional, cell-based; conditions: NCI-N87, 72 h
[22] = test system: BGC-823; experiment: Anticancer activity against human BGC-823 cells assessed as inhibition of cell viability incubated for 72 hrs by MTT assay; assay type: functional, cell-based; conditions: BGC-823, 72 h
[23] = test system: SGC-7901; experiment: Anticancer activity against human SGC-7901 cells assessed as inhibition of cell viability incubated for 72 hrs by MTT assay; assay type: functional, cell-based; conditions: SGC-7901, 72 h
[24] = test system: DLD-1; experiment: Antiproliferative activity against human DLD-1 cells assessed as reduction in cell viability incubated for 48 hrs by MTT assay; assay type: functional, cell-based; conditions: DLD-1, 48 h
[25] = test system: HCT-116; experiment: Antiproliferative activity against human HCT-116 cells assessed as reduction in cell viability incubated for 48 hrs by MTT assay; assay type: functional, cell-based; conditions: HCT-116, 48 h
[26] = test system: BXPC-3; experiment: Anticancer activity against human BXPC-3 cells assessed as reduction in cell viability incubated for 48 hrs by MTT assay; assay type: functional, cell-based; conditions: BXPC-3, 48 h
[27] = test system: SW1990; experiment: Anticancer activity against human SW1990 cells assessed as reduction in cell viability incubated for 48 hrs by MTT assay; assay type: functional, cell-based; conditions: SW1990, 48 h

C[C@H]1[C@@H](O)O[C@@H]2O[C@@]3(C)CC[C@H]4[C@H](C)CC[C@@H]1[C@@]24OO3 [ARTENIMOL]
IC50 [1]: 66 µM
IC50 [2]: 18.1 µM
IC50 [3]: 50 µM
IC50 [4]: 6.82 µM
IC50 [5]: 18.4 µM
IC50 [6]: 9.05 µM

CC(C)Oc1ccc(CN2CCNCC2)cc1-n1c(CN2CCN(C(=O)COc3ccc(Cl)cc3)CC2)nc2ccccc2c1=O
IC50 [7]: 0.9 µM

COc1cc(/C=C/C(=O)CC(=O)/C=C/c2ccc(O)c(OC)c2)ccc1O [CURCUMIN]
IC50 [8]: 41.9 µM
IC50 [9]: 53.5 µM

COc1ccc(/C=C/C(=O)C(CC2CCC2)C(=O)/C=C/c2ccc(OC)c(OC)c2)cc1OC [ROSOLUTAMIDE]
IC50 [10]: 2 µM
IC50 [11]: < 5 µM

C#Cc1nc(C2=C(C)[C@H](O)CC2)cs1
IC50 [12]: 76 µM

O=S(=O)(NC1CCCCC1)c1ccc2c(c1)C(=NO)c1cc(S(=O)(=O)NC3CCCCC3)ccc1-2
IC50 [13]: 4.2 µM
IC50 [14]: 2.6 µM

CNC(=O)c1cc(Oc2ccc(NC(=O)Nc3ccc(Cl)c(C(F)(F)F)c3)cc2)ccn1 [SORAFENIB]
IC50 [15]: < 10 µM
IC50 [16]: < 10 µM
IC50 [17]: < 10 µM
IC50 [18]: < 10 µM

O=C(O)c1cc(/N=N/c2ccc(S(=O)(=O)Nc3ccccn3)cc2)ccc1O [SULFASALAZINE]
IC50 [12]: 450 µM
IC50 [19]: 460 µM

C=C1C(=O)O[C@H]2[C@H]1CC/C(COC(=O)/C=C/c1c(OC)cccc1OC)=C\CC[C@@]1(C)O[C@@H]21
IC50 [20]: 0.34 µM

Cc1coc2c1C(=O)C(=O)c1c-2ccc2c1CCCC2(C)C [TANSHINONE IIA]
IC50 [21]: 3.1 µM
IC50 [22]: 2.8 µM
IC50 [23]: 250 µM

COc1ccc2oc(=N)c(C(N)=S)cc2c1
IC50 [24]: 50.2 µM
IC50 [25]: 44.5 µM

COC(=O)c1ccc([C@H]2c3[nH]c4ccccc4c3C[C@H](C(=O)OC)N2C(=O)CCl)cc1
IC50 [12]: 0.1 µM
IC50 [7]: 0.1 µM

CCOc1ccccc1-n1c(C(C)N2CCN(C(=O)COc3ccc(Cl)cc3)CC2)nc2ccccc2c1=O (stereo not drawn) [ERASTIN]
IC50 [12]: 0.2 µM
IC50 [7]: 0.625 µM
IC50 [19]: 0.14 µM

C[C@@H]1CC[C@@]2(OC1)O[C@H]1C[C@H]3[C@@H]4CC=C5C[C@@H](O)C[C@@H](O)[C@]5(C)[C@H]4CC[C@]3(C)[C@H]1[C@@H]2C [RUSCOGENIN]
IC50 [26]: 7.32 µM
IC50 [27]: 8.14 µM

Source: ChEMBL document CHEMBL5247631, “Ferroptosis-related small-molecule compounds in cancer therapy: Strategies and applications” (Eur J Med Chem, 2022)
